# Measurements published in patent publication US20260263468A1 (Fundación Instituto de Investigación Sanitaria Fundación …, priority 2023, published 2026).
# Tests used:
# C2C12 [1] = assay: Western blot of myogenesis markers during differentiation; type: cell-based; details: 1 μM
# Experimental: (§1) Cells were lysed with RIPA buffer and protein concentration was determined by BCA. […] Variations in intensity were expressed as % of basal (day 0) and expressed as mean±SEM. All results were calculated as a percentage of non-differentiated controls to minimize the intrinsic variation among different experiments.
# C2C12 [2] = assay: Western blot of phosphorylated AMPK; type: cell-based; details: 1 μM each, day 4; control 1.29±0.27%
# Experimental: as §1
# We next studied if these changes in AMP/ATP ratio had any effect in AMPK activation.
# C2C12 cells = assay: Cell proliferation assay (AlamarBlue); type: cell-based; details: 10^−9-10^−5 M, 24 and 48 hours
# Experimental: C2C12 cells (American Type Culture Collection, ATCC, Manassas, VA, USA) were cultured in DMEM supplemented with 10% FBS and 1% penicillin-streptomycin. To induce myogenic differentiation, 70% confluence C2C12 cells were culture in DMEM containing 2% HS (horse serum). Cells were maintained in a humidified chamber at 37° C., in 95% air and 5% CO2. Media was replaced with fresh every 48h.
# C2C12 cells were plated in 96-well plates (Corning, Cultek, Spain) (12.500 cells/well). Cell proliferation was measured using AlamarBlue assay according to the manufacturer's instructions, at 24 and 48 h of myogenic differentiation.
# [3] = system: K/B×N serum transfer-induced arthritis; assay: Resolved inflammation model (30 days): tissues weight, inflammation, body weight; type: in vivo, C57BL/6J mice; details: for BAT, Absolute weight / Bodyweight, Absolute weight / EDL, Absolute weight / Gastronemius, Absolute weight / Tibialis, Absolute weight / WAT, Absolute weight: resolved model
# Experimental: Animals were sacrificed 30 days after serum transfer.
# Mice were weighted weekly. Development of arthritis was assessed daily, and the severity of arthritis was assessed in each paw on a 4-point scale defined as follows: 0=normal appearance, 1=localized edema/erythema over one surface of the paw, 2=edema/erythema involving more than one surface of the paw, and 3-4=marked edema/erythema involving the whole paw. Scores of all 4 paws were added for a composite score. All motor activity tests were performed prior to serum inoculation and at the highest point of inflammation. Mice were euthanized on day 16 for acute inflammation model or 30 days for Inflammation resolved model. A representative photo of body structure and muscle of pawn were taken on this day. Gastronemius was collected for protein and RNA extraction. Tibialis and soleus were included for freeze histology following the indications of H. Meng (see references in ref. 44). Bones were prepared for micro-computed tomography (microCT) and histology. Blood was drawn and serum was isolated for measurement of inflammatory cytokines and C-reactive protein (CPR).
# Body weight and muscle loss continue happening until day 30 when inflammation is resolved (FIG. 15), and dipy treatment continues reverting inflammation effects (FIG. 15A).
# [4] = system: K/B×N serum transfer-induced arthritis; assay: Serum CRP ELISA and serum cytokine array; type: in vivo, C57BL/6J mice; details: arthritic mice + dipyridamole
# Experimental: For this purpose, they performed an array of protein expression of pro- and anti-inflammatory cytokines and chemokines in serum by using the Mouse Cytokine Array Q1 (RayBiotech, EEUU) which, simultaneously, detects 20 cytokines. The cytokines concentration was measured by fluorescence using GenePix following manufacture protocol for serum samples.
# CRP concentration was measured using the colorimetric Mouse CRP ELISA kit following manufacture protocol for serum samples (Crystal Chem, USA). Absorbance was measured at 450 nm using a microplate reader Tecan Spark 20M.
# Serum CRP were determined by Mouse CRP ELISA Kit (Crystal Chem, #80634), according to the instructions of the manufacturer. Absorbance was measured at 450 nm using a microplate reader Tecan Spark 20M.
# The cytokines concentration was measured by fluorescence using GenePix 4000B following manufacture protocol for serum and frozen samples. Serum samples were used at 2-fold sample dilution. Frozen gastronemius were crushed using a mortar and a pestle cooled with liquid nitrogen. Next, gastronemius were homogenized in a sonicator and the protein isolated in the supernatant quantified with BCA assay. We used 100 μL (1 mg/ml) of total gastronemius protein for cytokine and chemokine array assay.
# C2C12 [5] = assay: AMPK phosphorylation assay kit (short time points); type: cell-based; details: myoblast, 1 μM, 10 min after switching to 2% HS; control 1.97±0.17
# Experimental: Assay was performed with the AMPK phosphorilation assay kit (Abnova Corporation, Jhouzih St, Taiwan) as manufactor instructions and pAMPK was measured at λex/em 530/585 nm and 360/450 nm for total protein with Tecan Infinite.
# C2C12 [6] = assay: cAMP concentration (ELISA); type: cell-based; details: myoblast, 1 μM, 5 minutes; control 0.58±0.13
# Experimental: CAMP concentration was measured using the colorimetric cAMP ELISA kit following manufacture protocol for acetylated cell lysates (Cell Biolabs, San Diego, USA). Absorbance was measured at 450 nm using a microplate reader Tecan Spark 20M.
# The CAMP signaling cascade has been linked to a delay in the onset of age-related muscle loss.
# [7] = RA mice, dipy started 7 days after serum transfer
structure (smiles),measurement,setting,value
"OCCN(CCO)c1nc(N2CCCCC2)c2nc(N(CCO)CCO)nc(N3CCCCC3)c2n1 [dipyridamole, 2,6-bis(Diethanolamino)-4,8-dipiperidinopyrimido[5,4-d]pyrimidine]",PAX7 protein expression (% of basal),"C2C12 [1]; day 1, control 315±58%",revert the effect to control levels
same,MyoD protein expression (% of basal),"C2C12 [1]; day 2, control 182±8%",162±29%
same,Myf5 protein expression (% of basal),C2C12 [1]; first 2 days of differentiation,did not modulate
same,pAMPK (Western blot),C2C12 [2],2.66±0.7%
same,Proliferation,C2C12 cells,No significant changes
same,Body weight,[3]; [7],body weight gain starting one week after first dipy dose
same,Joint inflammation,[3]; [7],complete reversion of inflammation
same,"BAT, Absolute weight",[3]; Dipy alone,0.15 ± 0.01 g
same,"Bodyweight, Absolute weight",[3]; Dipy alone,27 ± 0.5 g
same,"EDL, Absolute weight",[3]; Dipy alone,0.03 ± 0.01 g
same,"Gastronemius, Absolute weight",[3]; Dipy alone,0.39 ± 0.03 g
same,"Tibialis, Absolute weight",[3]; Dipy alone,0.16 ± 0.02 g
same,"WAT, Absolute weight",[3]; Dipy alone,0.14 ± 0.06 g
same,"BAT, Absolute weight",[3]; RA + Dipy D 0,0.17 ± 0.01 g
same,"EDL, Absolute weight",[3]; RA + Dipy D 0,0.03 ± 0.01 g
same,"Gastronemius, Absolute weight",[3]; RA + Dipy D 0,0.37 ± 0.02 g
same,"Tibialis, Absolute weight",[3]; RA + Dipy D 0,0.11 ± 0.01 g
same,"WAT, Absolute weight",[3]; RA + Dipy D 0,0.15 ± 0.08 g
same,"Bodyweight, Absolute weight",[3]; RA + Dipy D 0 (preventive),26.4 ± 1.31 g
same,"BAT, Absolute weight",[3]; RA + Dipy D 7,0.15 ± 0.01 g
same,"Gastronemius, Absolute weight",[3]; RA + Dipy D 7,0.33 ± 0.02 g
same,"Tibialis, Absolute weight",[3]; RA + Dipy D 7,0.05 ± 0.01 g
same,"WAT, Absolute weight",[3]; RA + Dipy D 7,0.18 ± 0.12 g
same,"Bodyweight, Absolute weight",[3]; RA + Dipy D 7 (therapeutic),27.26 ± 1.20 g
same,Serum IL-9,[4]; arthritic 4.3±1.8,13.1 ± 2.6 pg/mL
same,Serum VEGF,[4]; arthritic 90±13.1,221 ± 40.3 pg/mL
same,Serum IL-10,[4]; arthritic 117.6±5.2,166 ± 10 pg/mL
same,Serum CRP,"[4]; arthritic 4098±560, sham 2861±893",3543 ± 586 ng/mL
same,AMPK activation,C2C12 [5],2.89±0.29
same,cAMP levels,C2C12 [6],0.85±0.17
